Target: T1, recombinant glucosyltransferase domain of C. difficile Toxin B/TcdB (Clostridioides difficile, UniProt P18177)
T1 construct: 6-His (C); purchased R&D Systems 6246-GT
Assay: biochemical

T1 sequence (P18177 1-543): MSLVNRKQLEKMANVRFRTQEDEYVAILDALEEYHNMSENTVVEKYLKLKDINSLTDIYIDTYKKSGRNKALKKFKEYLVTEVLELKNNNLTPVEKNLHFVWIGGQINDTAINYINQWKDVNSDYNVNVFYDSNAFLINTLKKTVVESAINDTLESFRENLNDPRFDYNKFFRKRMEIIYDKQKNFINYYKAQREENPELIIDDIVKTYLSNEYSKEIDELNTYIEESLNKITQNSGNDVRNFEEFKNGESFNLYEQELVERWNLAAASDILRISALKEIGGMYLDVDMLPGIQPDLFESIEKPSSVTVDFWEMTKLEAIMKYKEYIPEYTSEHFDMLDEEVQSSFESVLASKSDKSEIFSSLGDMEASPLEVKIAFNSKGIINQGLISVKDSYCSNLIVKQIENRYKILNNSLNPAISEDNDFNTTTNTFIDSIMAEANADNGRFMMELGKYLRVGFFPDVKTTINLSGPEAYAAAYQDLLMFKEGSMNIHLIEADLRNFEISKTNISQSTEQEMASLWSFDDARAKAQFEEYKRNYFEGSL

Row | Compound | IC50 [nM]
1 | O=C1Nc2cc(Cl)ccc2C(=O)N(Cc2ccc(C(=NO)c3ccccn3)cc2)[C@@H]1Cc1ccccn1 (mixture of isomers) [Example 52a, (R)-8-Chloro-4-(4-((hydroxyimino)(pyridin-2-yl)methyl)benzyl)-3-(pyridin-2-ylmethyl)-3,4-dihydro-1H-benzo[e][1,4]diazepine-2,5-dione] | 100 to 999
2 | O=C(O)c1ccc(CN2C(=O)c3ccc(Cl)cc3NC(=O)[C@H]2Cc2ccccn2)cc1 [Example 1a, (R)-4-((8-Chloro-2,5-dioxo-3-(pyridin-2-ylmethyl)-2,3-dihydro-1H-benzo[e][1,4]diazepin-4(5H)-yl)methyl)benzoic Acid] | 100 to 999
3 | O=C(O)c1ccc(CN2C(=O)c3ccc(F)cc3NC(=O)[C@H]2Cc2cccnc2)cc1 [Example 1b] | 1000 to 10000
4 | O=C(O)c1ccc(CN2C(=O)c3ccc(Cl)cc3NC(=O)[C@H]2Cc2ccncc2)cc1 [Example 1c] | 10000 to 35000
5 | O=C(O)c1ccc(CN2C(=O)c3ccc(Cl)cc3NC(=O)[C@H]2Cc2ccc(Cl)c(Cl)c2)cc1 [Example 1d] | 1000 to 10000
6 | Cc1ccc2c(c1)NC(=O)[C@@H](Cc1ccc(Cl)c(Cl)c1)N(Cc1ccc(C(=O)O)cc1)C2=O [Example 1e] | 10000 to 35000
7 | O=C(O)c1ccc(CN2C(=O)c3ccc(Cl)cc3NC(=O)[C@@H]2Cc2ccccn2)cc1 [Example 1f] | 100 to 999
8 | O=C(O)c1ccc(CN2C(=O)c3ccc(Br)cc3NC(=O)[C@H]2Cc2cccnc2)cc1 [Example 1g] | 1000 to 10000
9 | O=C(O)c1ccc(CN2C(=O)c3ccc(Cl)cc3NC(=O)[C@H]2Cc2ccccn2)s1 [Example 1h] | 100 to 999
10 | O=C(O)c1ccc(CN2C(=O)c3ccc(Cl)cc3NC(=O)[C@H]2Cc2ccccn2)cc1F [Example 1i] | 100 to 999
11 | O=C1Nc2cc(Cl)ccc2C(=O)N(C[C@H]2CC[C@H](C(=O)O)CC2)[C@@H]1Cc1ccccn1 [Example 1j] | 10000 to 35000
12 | O=C(O)c1ccc(CN2C(=O)c3ccc(Cl)cc3NC(=O)[C@H]2Cc2cccs2)cc1 [Example 1k] | 10000 to 35000
13 | O=C(O)c1ccc(CN2C(=O)c3ccc(Cl)cc3NC(=O)C2Cc2cnccn2)cc1 (centres unmarked) [Example 1l] | 1000 to 10000
14 | O=C(O)c1ccc(CN2C(=O)c3ccc(Cl)cc3NC(=O)[C@H]2Cc2cscn2)cc1 [Example 1m] | 1000 to 10000
15 | C[C@@H]1C(=O)Nc2cc(Cl)ccc2C(=O)N1Cc1ccc(C(=O)O)c(Br)c1 [Example 1n] | 10000 to 35000
16 | O=C(O)c1ccc(CN2C(=O)c3ccc(Cl)cc3NC(=O)[C@H]2Cc2cccnc2)cc1 [Example 2a, (R)-4-((8-Chloro-2,5-dioxo-3-(pyridin-3-ylmethyl)-2,3-dihydro-1H-benzo[e][1,4]diazepin-4(5H)-yl)methyl)benzoic Acid] | 100 to 999
17 | O=C(O)c1ccc(CN2C(=O)c3ccc(Cl)cc3NC(=O)[C@@H]2Cc2ccc(O)cc2)cc1 [Example 2c] | 10000 to 35000
18 | O=C(O)c1ccc(CN2C(=O)c3ccc(Cl)cc3NC(=O)[C@H]2Cc2ccc(O)cc2)cc1 [Example 2d] | 1000 to 10000
19 | COc1ccc2c(c1)NC(=O)[C@@H](Cc1cccnc1)N(Cc1ccc(C(=O)O)cc1)C2=O [Example 2e] | 1000 to 10000
20 | COc1ccc2c(c1)NC(=O)[C@@H](Cc1ccc(Cl)c(Cl)c1)N(Cc1ccc(C(=O)O)cc1)C2=O [Example 2f] | 1000 to 10000
21 | O=C(O)c1ccc(CN2C(=O)c3ccc(F)cc3NC(=O)[C@H]2Cc2ccc(Cl)c(Cl)c2)cc1 [Example 2g] | 1000 to 10000
22 | O=C(O)c1ccc(CN2C(=O)c3ccc([N+](=O)[O-])cc3NC(=O)[C@H]2Cc2ccc(Cl)c(Cl)c2)cc1 [Example 2h] | 1000 to 10000
23 | O=C(O)c1ccc(CN2C(=O)c3ccc([N+](=O)[O-])cc3NC(=O)[C@H]2Cc2cccnc2)cc1 [Example 2i] | 1000 to 10000
24 | O=C(O)c1ccc(CN2C(=O)c3ccc(Cl)cc3NC(=O)[C@H]2Cc2ccccc2)cc1 [Example 3a, (R)-4-((3-Benzyl-8-chloro-2,5-dioxo-2,3-dihydro-1H-benzo[e][1,4]diazepin-4(5H)-yl)methyl)benzoic Acid] | 1000 to 10000
25 | C[C@H]1C(=O)Nc2cc(Cl)ccc2C(=O)N1Cc1ccc(C(=O)O)cc1 [Example 3b] | 10000 to 35000

Row | Compound | IC50 [nM]
26 | O=C(O)c1ccc(CN2C(=O)c3ccc(Cl)cc3NC(=O)[C@H]2CCc2ccccc2)cc1 [Example 3c] | 10000 to 35000
27 | O=C(O)c1ccc(CN2C(=O)c3ccc(Cl)cc3NC(=O)[C@H]2Cc2ccc(F)cc2)cc1 [Example 3d] | 1000 to 10000
28 | O=C(O)c1ccc(CN2C(=O)c3ccc(Cl)cc3NC(=O)[C@H]2Cc2ccc(Cl)cc2)cc1 [Example 3e] | 10000 to 35000
29 | O=C(O)c1ccc(CN2C(=O)c3ccc(Cl)cc3NC(=O)[C@H]2Cc2cccc(Cl)c2)cc1 [Example 3f] | 1000 to 10000
30 | C[C@@H]1C(=O)Nc2cc(Cl)ccc2C(=O)N1Cc1ccc(C(=O)O)cc1 [Example 3g] | 10000 to 35000
31 | Cc1ccc(C[C@@H]2C(=O)Nc3cc(Cl)ccc3C(=O)N2Cc2ccc(C(=O)O)cc2)cc1 [Example 3h] | 10000 to 35000
32 | O=C(O)c1ccc(CN2C(=O)c3ccc(Cl)cc3NC(=O)[C@H]2Cc2ccccc2Cl)cc1 [Example 3i] | 1000 to 10000
33 | O=C(O)c1ccc(CN2C(=O)c3ccc(Cl)cc3NC(=O)[C@H]2Cc2ccccc2F)cc1 [Example 3j] | 10000 to 35000
34 | CC(C)[C@@H]1C(=O)Nc2cc(Cl)ccc2C(=O)N1Cc1ccc(C(=O)O)cc1 [Example 3k] | 100 to 999
35 | Cc1ccccc1C[C@@H]1C(=O)Nc2cc(Cl)ccc2C(=O)N1Cc1ccc(C(=O)O)cc1 [Example 3l] | 1000 to 10000
36 | Cc1cccc(C[C@@H]2C(=O)Nc3cc(Cl)ccc3C(=O)N2Cc2ccc(C(=O)O)cc2)c1 [Example 3m] | 1000 to 10000
37 | N#Cc1cccc(C[C@@H]2C(=O)Nc3cc(Cl)ccc3C(=O)N2Cc2ccc(C(=O)O)cc2)c1 [Example 3n] | 1000 to 10000
38 | O=C1CN(Cc2ccc(C(=O)O)cc2)C(=O)c2ccc(Cl)cc2N1 [Example 3o] | 10000 to 35000
39 | O=C(Nc1ccccn1)c1ccc(CN2C(=O)c3ccc(Cl)cc3NC(=O)[C@H]2Cc2cccc(Cl)c2)cc1 [Example 4aa, (R)-4-((8-chloro-3-(3-chlorobenzyl)-2,5-dioxo-2,3-dihydro-1H-benzo[e][1,4]diazepin-4(5H)-yl)methyl)-N-(pyridin-2-yl)benzamide] | < 100
40 | O=C1Nc2cc(Cl)ccc2C(=O)N(Cc2ccc(C(=O)n3ccc4cccnc43)c(Cl)c2)[C@@H]1Cc1ccccn1 [Example 4ab, (R)-8-chloro-4-(3-chloro-4-(1H-pyrrolo[2,3-b]pyridine-1-carbonyl)benzyl)-3-(pyridin-2-ylmethyl)-3,4-dihydro-1H-benzo[e][1,4]diazepine-2,5-dione] | < 100
41 | Cc1ccc2c(c1)NC(=O)[C@@H](Cc1ccc(Cl)c(Cl)c1)N(Cc1ccc(C(=O)Nc3ccccn3)cc1)C2=O [Example 4ac, (R)-4-((3-(3,4-dichlorobenzyl)-8-methyl-2,5-dioxo-2,3-dihydro-1H-benzo[e][1,4]diazepin-4(5H)-yl)methyl)-N-(pyridin-2-yl)benzamide] | 100 to 999
42 | O=C(Nc1ccccn1)c1ccc(CN2C(=O)c3ccc([N+](=O)[O-])cc3NC(=O)[C@H]2Cc2ccc(Cl)c(Cl)c2)cc1 [Example 4ae, (R)-4-((3-(3,4-dichlorobenzyl)-8-nitro-2,5-dioxo-2,3-dihydro-1H-benzo[e][1,4]diazepin-4(5H)-yl)methyl)-N-(pyridin-2-yl)benzamide] | 100 to 999
43 | Cc1cnc2c(c1)CCN2C(=O)c1ccc(CN2C(=O)c3ccc(Cl)cc3NC(=O)[C@H]2Cc2ccccn2)cc1 [Example 4af, (R)-8-chloro-4-(4-(5-methyl-2,3-dihydro-1H-pyrrolo[2,3-b]pyridine-1-carbonyl)benzyl)-3-(pyridin-2-ylmethyl)-3,4-dihydro-1H-benzo[e][1,4]diazepine-2,5-dione] | < 100
44 | O=C1Nc2cc(Cl)ccc2C(=O)N(Cc2ccc(C(=O)N3CCCc4cccnc43)cc2)[C@@H]1Cc1ccccn1 [Example 4ag, (R)-8-chloro-3-(pyridin-2-ylmethyl)-4-(4-(1,2,3,4-tetrahydro-1,8-naphthyridine-1-carbonyl)benzyl)-3,4-dihydro-1H-benzo[e][1,4]diazepine-2,5-dione] | 1000 to 10000
45 | O=C1Nc2cc(Cl)ccc2C(=O)N(Cc2ccc(C(=O)N3CCc4cccnc43)cc2)[C@@H]1Cc1ccccn1 [Example 4ah, (R)-8-chloro-4-(4-(2,3-dihydro-1H-pyrrolo[2,3-b]pyridine-1-carbonyl)benzyl)-3-(pyridin-2-ylmethyl)-3,4-dihydro-1H-benzo[e][1,4]diazepine-2,5-dione] | < 100
46 | Cc1ccccc1C[C@@H]1C(=O)Nc2cc(Cl)ccc2C(=O)N1Cc1ccc(C(=O)Nc2ccccn2)cc1 [Example 4ai, (R)-4-((8-chloro-3-(2-methylbenzyl)-2,5-dioxo-2,3-dihydro-1H-benzo[e][1,4]diazepin-4(5H)-yl)methyl)-N-(pyridin-2-yl)benzamide] | < 100
47 | Cc1cccc(C[C@@H]2C(=O)Nc3cc(Cl)ccc3C(=O)N2Cc2ccc(C(=O)Nc3ccccn3)cc2)c1 [Example 4aj, (R)-4-((8-chloro-3-(3-methylbenzyl)-2,5-dioxo-2,3-dihydro-1H-benzo[e][1,4]diazepin-4(5H)-yl)methyl)-N-(pyridin-2-yl)benzamide] | 100 to 999
48 | N#Cc1cccc(C[C@@H]2C(=O)Nc3cc(Cl)ccc3C(=O)N2Cc2ccc(C(=O)Nc3ccccn3)cc2)c1 [Example 4ak, (R)-4-((8-chloro-3-(3-cyanobenzyl)-2,5-dioxo-2,3-dihydro-1H-benzo[e][1,4]diazepin-4(5H)-yl)methyl)-N-(pyridin-2-yl)benzamide] | < 100
49 | Cc1ccc(NC(=O)c2ccc(CN3C(=O)c4ccc(Cl)cc4NC(=O)[C@H]3Cc3cscn3)cc2)nc1 [Example 4al, (R)-4-((8-chloro-2,5-dioxo-3-(thiazol-4-ylmethyl)-2,3-dihydro-1H-benzo[e][1,4]diazepin-4(5H)-yl)methyl)-N-(5-methylpyridin-2-yl)benzamide] | < 100
50 | O=C1CN(Cc2ccc(C(=O)Nc3ccccn3)cc2)C(=O)c2ccc(Cl)cc2N1 [Example 4am, 4-((8-chloro-2,5-dioxo-2,3-dihydro-1H-benzo[e][1,4]diazepin-4(5H)-yl)methyl)-N-(pyridin-2-yl)benzamide] | 100 to 999
